Assay [1] deals with full-length activated BTK (wildtype) (Homo sapiens (Human), UniProt Q06187). Kind of assay: AlphaScreen assay, wild-type BTK. The class given is biochemical. To be noted: for inhibition at 10 µM: read-out: BTK % @ 10 uM, @ 10 uM. Here is the method: (§1) The activated BTK was frozen in 50 μl aliquots (125-150 μg/ml).
(§2) BTK activity was assayed using a PLCγ2-derived biotinylated peptide substrate (biotin-[…]-OH) and AlphaScreen™ (Amplified Luminescent Proximity Homogeneous Assay) technology. The extent of peptide phosphorylation was determined by using acceptor beads conjugated to phosphotyrosine antibody that recognized the phosphorylated peptide and donor beads conjugated to streptavidin that binds to the biotin on the peptide. Excitation of the donor beads converted ambient oxygen to excited singlet oxygen which when in close proximity to acceptor beads, reacted with acceptor beads resulting in signal amplification.
(§3) Test inhibitors and controls were prepared in 10% DMSO at 10-fold the desired final concentration and added to each well of a reaction plate (Corning 96-well half-area solid white nonbinding surface plate) in a volume of 2.5 μl. […] The plate was incubated for 120 min at room temperature and the reaction stopped by the addition of 10 μl stop/detection mixture containing 35 mM EDTA, 50 ug/ml AlphaScreen™ Streptavidin Donor beads (final concentration is 500 ng/well) and AlphaScreen™ Phospho-tyrosine (P-Tyr-100) Acceptor beads (final concentration is 500 ng/well) under green light conditions. The plate was incubated overnight at room temperature in the dark and the plates read on the BMG PolarStar Omega ([…], Gain=4000). Data were archived and analyzed with a 4-parameter fit to generate IC50 values using the CDD Vault from Collaborative Drug Discovery.
A general note: Bead proximity is the source of the signal in Alpha formats.

In assay [2] the target is full-length activated BTK mutant C481S (Homo sapiens (Human), UniProt Q06187, C481S). Briefly: AlphaScreen assay, BTK mutant C481S. To be noted: for inhibition at 10 µM: read-out: BTK-C481S % @ 10 uM, @ 10 uM. The class given is biochemical. Here is the method:
as §1, §2, §3

SMILES strings stand for the structures.

A word on the IC50: it is the point on the concentration scale where inhibition reaches its midpoint. A low value points to greater potency.

Sequence of full-length activated BTK (wildtype) (Q06187 whole entry): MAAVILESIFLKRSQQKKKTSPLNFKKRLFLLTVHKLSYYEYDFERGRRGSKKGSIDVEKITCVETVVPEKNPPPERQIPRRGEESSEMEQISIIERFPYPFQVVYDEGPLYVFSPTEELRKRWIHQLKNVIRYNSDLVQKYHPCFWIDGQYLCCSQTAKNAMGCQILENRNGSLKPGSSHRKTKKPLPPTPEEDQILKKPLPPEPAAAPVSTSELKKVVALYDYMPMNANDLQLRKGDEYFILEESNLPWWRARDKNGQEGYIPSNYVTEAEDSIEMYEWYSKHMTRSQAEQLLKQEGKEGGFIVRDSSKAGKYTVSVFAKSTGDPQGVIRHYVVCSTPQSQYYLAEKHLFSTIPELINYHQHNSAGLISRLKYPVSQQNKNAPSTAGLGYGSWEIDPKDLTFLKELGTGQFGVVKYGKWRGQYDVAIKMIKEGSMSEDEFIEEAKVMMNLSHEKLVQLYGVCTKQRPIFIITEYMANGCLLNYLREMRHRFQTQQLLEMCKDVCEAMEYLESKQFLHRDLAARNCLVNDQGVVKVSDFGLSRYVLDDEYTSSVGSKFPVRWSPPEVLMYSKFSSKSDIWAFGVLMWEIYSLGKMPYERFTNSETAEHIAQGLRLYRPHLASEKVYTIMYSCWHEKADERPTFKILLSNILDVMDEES
Sequence of full-length activated BTK mutant C481S (Q06187 whole entry C481S): as the sequence (Q06187 whole entry) above, with C481S counted along it

For `Cn1cc(NC(=O)c2ccc(Cl)c(C(=O)c3c[nH]c4ncnc(N[C@@H]5CC[C@@H](CO)OC5)c34)c2)cn1` [Compound I-629, 4-chloro-3-(4-(((3R,6S)-6-(hydroxymethyl)tetrahydro-2H-pyran-3-yl)amino)-7H-pyrrolo[2,3-d]pyrimidine-5-carbonyl)-N-(1-methyl-1H-pyrazol-4-yl)benzamide], the 50% inhibitory concentration (IC50) was determined as 89.5 nM in assay [1] and 804 nM in assay [2].
On to `C=CS(=O)(=O)N1CCCC1CNc1ncnc2[nH]cc(C(=O)c3ccc(Oc4ccccc4)cc3Cl)c12` (racemic) [Compound I-326r, (racemic)-(2-chloro-4-phenoxyphenyl)(4-(((1-(vinylsulfonyl)pyrrolidin-2-yl)methyl)amino)-7H-pyrrolo[2,3-d]pyrimidin-5-yl)methanone], for which the IC50 was 4.33 nM in assay [1] and 419 nM in assay [2].
As for `O=C(Nc1cccc(C(=O)c2c[nH]c3ncnc(N[C@@H]4CC[C@@H](CO)OC4)c23)c1)c1ccccc1` [Compound I-642, N-(3-(4-(((3R,6S)-6-(hydroxymethyl)tetrahydro-2H-pyran-3-yl)amino)-7H-pyrrolo[2,3-d]pyrimidine-5-carbonyl)phenyl)benzamide], the IC50 was found to be 251 nM in assay [1] and 203 nM in assay [2].
Consider `C=CC(=O)N1CCCC(Nc2ncnc3[nH]cc(C(=O)c4ccc(Oc5ccccc5)cc4Cl)c23)C1` (racemic) [Compound I-321r, (racemic)-1-(3-((5-(2-chloro-4-phenoxybenzoyl)-7H-pyrrolo[2,3-d]pyrimidin-4-yl)amino)piperidin-1-yl)prop-2-en-1-one], for which the IC50 in assay [1] was found to be 4.5 nM; in assay [2] it was 179 nM.
The like results for `O=C(Nc1ccc(Cl)c(C(=O)c2c[nH]c3ncnc(N[C@@H]4CC[C@@H](CO)OC4)c23)c1)c1cc2c(cn1)CCCC2` [Compound I-606, N-(4-chloro-3-(4-(((3R,6S)-6-(hydroxymethyl)tetrahydro-2H-pyran-3-yl)amino)-7H-pyrrolo[2,3-d]pyrimidine-5-carbonyl)phenyl)-5,6,7,8-tetrahydroisoquinoline-3-carboxamide] were, in that order, 0.98 nM and 55.9 nM.
As for `O=C(c1ccc(C(=O)N2CCc3ccccc3C2)cc1Cl)c1c[nH]c2ncnc(N[C@@H]3CC[C@@H](CO)OC3)c12` [Compound I-615, (2-chloro-4-(1,2,3,4-tetrahydroisoquinoline-2-carbonyl)phenyl)(4-(((3R,6S)-6-(hydroxymethyl)tetrahydro-2H-pyran-3-yl)amino)-7H-pyrrolo[2,3-d]pyrimidin-5-yl)methanone], the 50% inhibitory concentration (IC50) came to 86.4 nM in assay [1] and 34.1 nM in assay [2].
The like results for `O=C(Cc1ccccc1)Nc1ccc(Cl)c(C(=O)c2c[nH]c3ncnc(N[C@@H]4CC[C@@H](CO)OC4)c23)c1` [Compound I-602, N-(4-chloro-3-(4-(((3R,6S)-6-(hydroxymethyl)tetrahydro-2H-pyran-3-yl)amino)-7H-pyrrolo[2,3-d]pyrimidine-5-carbonyl)phenyl)-2-phenylacetamide] were, in that order, 140 nM and 317 nM.
With `O=C(Nc1ccc(Cl)c(C(=O)c2c[nH]c3ncnc(N[C@@H]4CC[C@@H](CO)OC4)c23)c1)c1ccccc1` [Compound I-601, N-(4-chloro-3-(4-(((3R,6S)-6-(hydroxymethyl)tetrahydro-2H-pyran-3-yl)amino)-7H-pyrrolo[2,3-d]pyrimidine-5-carbonyl)phenyl)benzamide], the IC50 in assay [1] came out at 20.9 nM; in assay [2], 116 nM.
Consider `O=C(Nc1ccc(Cl)c(C(=O)c2c[nH]c3ncnc(N[C@@H]4CC[C@@H](CO)OC4)c23)c1)c1cncs1` [Compound I-604, N-(4-chloro-3-(4-(((3R,6S)-6-(hydroxymethyl)tetrahydro-2H-pyran-3-yl)amino)-7H-pyrrolo[2,3-d]pyrimidine-5-carbonyl)phenyl)thiazole-5-carboxamide], for which the IC50 is 304 nM in assay [1] and 731 nM in assay [2].
In the same order, the values of `O=C(c1ccc(Oc2ccccc2)cc1Cl)c1c[nH]c2ncnc(N[C@H]3CN[C@H](CO)C3)c12` [Compound I-345e, (2-chloro-4-phenoxyphenyl)(4-(((3R,5S)-5-(hydroxymethyl)pyrrolidin-3-yl)amino)-7H-pyrrolo[2,3-d]pyrimidin-5-yl)methanone] are 10.1 nM and 68.2 nM.
Take `COCCNC(=O)c1ccc(C(=O)c2c[nH]c3ncnc(N[C@@H]4CC[C@@H](CO)OC4)c23)cc1` [Compound I-636, 4-(4-(((3R,6S)-6-(hydroxymethyl)tetrahydro-2H-pyran-3-yl)amino)-7H-pyrrolo[2,3-d]pyrimidine-5-carbonyl)-N-(2-methoxyethyl)benzamide]: the inhibition at 10 µM amounted to 62% in assay [1] and 41% in assay [2].
With `O=C(c1ccc(C(=O)N2CCCCC2)cc1Cl)c1c[nH]c2ncnc(N[C@@H]3CC[C@@H](CO)OC3)c12` [Compound I-617, (3-chloro-4-(4-(((3R,6S)-6-(hydroxymethyl)tetrahydro-2H-pyran-3-yl)amino)-7H-pyrrolo[2,3-d]pyrimidine-5-carbonyl)phenyl)(piperidin-1-yl)methanone], the 50% inhibitory concentration (IC50) in assay [1] came to 16.2 nM; in assay [2], 48.7 nM.
For `N#Cc1cccc(NC(=O)c2ccc(C(=O)c3c[nH]c4ncnc(N[C@@H]5CC[C@@H](CO)OC5)c34)c(Cl)c2)c1` [Compound I-614, 3-chloro-N-(3-cyanophenyl)-4-(4-(((3R,6S)-6-(hydroxymethyl)tetrahydro-2H-pyran-3-yl)amino)-7H-pyrrolo[2,3-d]pyrimidine-5-carbonyl)benzamide], the IC50 in assay [1] was found to be 142 nM; in assay [2], 228 nM.
As for `CS(=O)(=O)N1CC(Nc2ncnc3[nH]cc(C(=O)c4ccc(Oc5ccccc5)cc4Cl)c23)CCC1CO` (racemic) [Compound I-653, (racemic)-(2-chloro-4-phenoxyphenyl)(4-((6-(hydroxymethyl)-1-(methylsulfonyl)piperidin-3-yl)amino)-7H-pyrrolo[2,3-d]pyrimidin-5-yl)methanone], the IC50 in assay [1] is 10 nM; in assay [2], 38.8 nM.
The like results for `CNC(=O)c1ccc(Oc2ccc(C(=O)c3c[nH]c4ncnc(N[C@@H]5CC[C@@H](CO)OC5)c34)c(Cl)c2)cn1` [Compound I-651, 5-(3-chloro-4-(4-(((3R,6S)-6-(hydroxymethyl)tetrahydro-2H-pyran-3-yl)amino)-7H-pyrrolo[2,3-d]pyrimidine-5-carbonyl)phenoxy)-N-methyl picolinamide] were, in that order, 332 nM and 230 nM.
As to `O=C(c1cccc(NC(=O)C2CCOCC2)c1)c1c[nH]c2ncnc(N[C@@H]3CC[C@@H](CO)OC3)c12` [Compound I-644, N-(3-(4-(((3R,6S)-6-(hydroxymethyl)tetrahydro-2H-pyran-3-yl)amino)-7H-pyrrolo[2,3-d]pyrimidine-5-carbonyl)phenyl)tetrahydro-2H-pyran-4-carboxamide], the inhibition at 10 µM in assay [1] worked out at 58%; in assay [2], 44%.
In the case of `O=C(c1cc(C(=O)N2CCOCC2)ccc1Cl)c1c[nH]c2ncnc(N[C@@H]3CC[C@@H](CO)OC3)c12` [Compound I-612, (4-chloro-3-(4-(((3R,6S)-6-(hydroxymethyl)tetrahydro-2H-pyran-3-yl)amino)-7H-pyrrolo[2,3-d]pyrimidine-5-carbonyl)phenyl)(morpholino) methanone], in assay [1], the IC50 was 1630 nM. Besides, the inhibition at 10 µM in assay [2] worked out at 82%.
`CN1[C@H](CO)CCC[C@@H]1CNc1ncnc2[nH]cc(C(=O)c3ccc(Oc4ccccc4)cc3Cl)c12` (racemic) [Compound I-360e, racemic-cis-(2-chloro-4-phenoxyphenyl)(4-(((6-(hydroxymethyl)-1-methylpiperidin-2-yl)methyl)amino)-7H-pyrrolo[2,3-d]pyrimidin-5-yl)methanone]: the IC50 in assay [1] was determined as 1.07 nM; in assay [2] it was 59.4 nM.
Consider `O=C(c1ccc(Nc2ccccc2)cc1Cl)c1c[nH]c2ncnc(N[C@@H]3CC[C@@H](CO)OC3)c12` [Compound I-650, (2-Chloro-4-(phenylamino)phenyl)(4-(((3R,6S)-6-(hydroxymethyl)tetrahydro-2H-pyran-3-yl)amino)-7H-pyrrolo[2,3-d]pyrimidin-5-yl)methanone], for which the IC50 is 202 nM in assay [1] and 326 nM in assay [2].
Turning to `O=C(c1ccc(N2CCCCC2)cc1Cl)c1c[nH]c2ncnc(N[C@@H]3CC[C@@H](CO)OC3)c12` [Compound I-646, (2-chloro-4-(piperidin-1-yl)phenyl)(4-(((3R,6S)-6-(hydroxymethyl)tetrahydro-2H-pyran-3-yl)amino)-7H-pyrrolo[2,3-d]pyrimidin-5-yl)methanone], the IC50 in assay [1] worked out at 380 nM; in assay [2] it was 781 nM.
In the case of `O=C(c1ccc(C(=O)N2CCOCC2)cc1)c1c[nH]c2ncnc(N[C@@H]3CC[C@@H](CO)OC3)c12` [Compound I-632, (4-(((3R,6S)-6-(hydroxymethyl)tetrahydro-2H-pyran-3-yl)amino)-7H-pyrrolo[2,3-d]pyrimidin-5-yl)(4-(morpholine-4-carbonyl)phenyl) methanone], the inhibition at 10 µM in assay [1] is 84%; in assay [2] it was 66%.

(Values after patent US11020398B2, “Amino-pyrrolopyrimidinone compounds and methods of use thereof” (ArQule, Inc., priority 2016, dated 2021).)
